Measurements reported in US20070059688A1, “Gastrointestinal chemosensory receptors” (priority 2001, published 2007).
“Also recorded” adds a separate entry of the source.

How the values were obtained:
[1] = test system: STC-1 cells; assay: Ca2+ imaging of individual STC-1 cells (fura 2-AM) after bitter tastants; format: cell-based, mouse; details: for [Ca2+]i response in STC-1 cells (in words): single cells, FIG. 9 concentrations: PTC 3 mM, 6-PTU 1 mM, caffeine 10 mM, nicotine 10 mM, cycloheximide 50 μM
Procedure: The [Ca^2+]i of individual cells was measured before and after exposure to single concentrations of bitter tastants. Top panel. […] The values in parenthesis are the number of cells analyzed. Lower panels. Individual traces of [Ca^2+], from two cells exposed to denatonium benzoate or cycloheximide.
Due to heterogeneity of the STC-1 cell population, we monitored responses in the intracellular Ca^2+ concentration ([Ca^2+]i) using Ca^2+ imaging of individual cells and tested the effect of several compounds widely used in bitter taste signaling.
The concentrations of denatonium used in these experiments are similar to those used for eliciting second messenger changes and ion channel activity in taste tissues.
Since a low level of mT2R5 expression was also detected in STC-1 cells, we determined if cycloheximide stimulates a [Ca^2+]i response in these cells.

[2] = test system: IEC-18 cells; assay: [Ca2+]i changes in IEC-18 cells; format: cell-based, rat; details: FIG. 10B: 5 mM denatonium benzoate, vasopressin as positive control
Procedure: (§1) (A) STC-1 cells, grown on cover slips, were washed with a buffer solution (buffer A) consisting of Hanks' balanced salt solution supplemented with 0.03% NaHCO3, 1.3 mM CaCl2, 0.5 mM MgCl2, 0.4 mM MgSO4, and 0.1% BSA. After washing, cells were incubated with […] methyl ester (fura-2/AME) from a stock of 1 mM in DMSO for 30 min at room temperature. Cells were then washed again with buffer A and left at room temperature for an additional 30 min. Each cover slip was placed in a glass cuvette with 2 ml of buffer A, and fluorescence was measured continuously in a Hitachi F-2000 fluorospectrophotometer with excitation wavelength of 340 and 380 nm and an emission wavelength of 510 nm. The bars represent the increase in [Ca^2+]i in response to various concentrations of denatonium benzoate (DB), as indicated. (B) [Ca^2+]i changes in IEC-18 cells, a normal rat intestinal epithelial cell line, after sequential addition of 5 mM denatonium benzoate (DB) followed by 50 nM vasopressin (VP), added as a positive control. (C) [Ca^2+]i changes in Swiss 3T3 cells after sequential addition of 5 mM denatonium benzoate (DB) followed by 10 nM bombesin (Bom), added as a positive control. The changes in [Ca^2+]i in IEC-18 and Swiss 3T3 cells were measured as described above for STC-1 cells.

[3] = biological target: T1, chimeric mT2R5 receptors containing the NH2-terminal 39 amino acids of rhodopsin (Mus musculus, UniProt Q9JKT4); details: HEK-293 cells; Chandrashekar et al, Cell 100:703-711 (2000); cited from earlier work
T1 construct: host or cells: HEK-293 (heterologous expression)
T1 sequence (Q9JKT4 with tags, fused parts or gaps): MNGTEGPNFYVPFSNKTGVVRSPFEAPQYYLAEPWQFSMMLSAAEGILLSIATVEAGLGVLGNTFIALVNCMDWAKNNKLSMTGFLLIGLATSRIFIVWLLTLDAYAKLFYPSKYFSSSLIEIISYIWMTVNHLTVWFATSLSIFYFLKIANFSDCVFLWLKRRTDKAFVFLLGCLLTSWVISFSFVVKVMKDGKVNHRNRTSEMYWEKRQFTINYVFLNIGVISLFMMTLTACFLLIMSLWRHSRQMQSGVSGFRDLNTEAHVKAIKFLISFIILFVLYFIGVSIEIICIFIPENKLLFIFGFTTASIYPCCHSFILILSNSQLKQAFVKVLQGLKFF

[4] = test system: STC-1 cells; assay: [Ca2+]i in STC-1 cells on cover slips, fura-2 fluorospectrophotometry; format: cell-based, mouse; details: various concentrations of denatonium benzoate, FIG. 10A
Procedure: as §1

For Cn1c(=O)c2c(ncn2C)n(C)c1=O [caffeine], the “[Ca2+]i response in STC-1 cells (in words)” value [1] was “robust [Ca^2+]i responses”.
For NC(=S)Nc1ccccc1 [phenylthiocarbamide], the “[Ca2+]i response in STC-1 cells (in words)” value [1] was “robust [Ca^2+]i responses; also recorded: promoted rapid [Ca^2+]i responses” and the “[Ca2+]i response in IEC-18 cells (in words)” value [2] was “not in other well studied cell lines such as IEC-18 or 3T3”.
In the case of CN1[C@@H]2CC[C@H]1C[C@@H](OC(=O)C(CO)c1ccccc1)C2 (some centres unmarked) [atropine], the “[Ca2+]i response in STC-1 cells (in words)” value [1] is reported as “did not induce any detectable change”.
In the case of CCCc1cc(=O)[nH]c(=S)[nH]1 [6-n-propil-2-thiouracil], the “[Ca2+]i response in STC-1 cells (in words)” value [1] is reported as “robust [Ca^2+]i responses; also recorded: promoted rapid [Ca^2+]i responses” and the “[Ca2+]i response in IEC-18 cells (in words)” value [2] is reported as “not in other well studied cell lines such as IEC-18 or 3T3”.
In the case of C[C@@H]1C[C@@H]([C@H](O)CC2CC(=O)NC(=O)C2)C(=O)[C@@H](C)C1 [cycloheximide], the “[Ca2+]i response in STC-1 cells (in words)” value [1] is listed as “induced oscillatory changes in [Ca^2+]i in a small sub-population of STC-1 cells; also recorded: promoted rapid [Ca^2+]i responses”, the “[Ca2+]i response in IEC-18 cells (in words)” value [2] is listed as “not in other well studied cell lines such as IEC-18 or 3T3” and the “mT2R5 response, increase in [Ca2+]i (in words)” value [3] is listed as “responds”.
With O=C(O)/C=C/c1ccc(O)c(O)c1 [caffeic acid] the “[Ca2+]i response in STC-1 cells (in words)” value [1] was “did not induce any detectable change”.
With CC[N+](CC)(CC(=O)Nc1c(C)cccc1C)Cc1ccccc1 [denatonium benzoate] the “cells with increase in [Ca2+]i” value ([1]; 1 mM, percentage of the STC-1 population) was 33%, the “cells with marked increase in [Ca2+]i” value ([1]; 10 mM, percentage of STC-1 cells examined) was 97% and the “[Ca2+]i response in STC-1 cells (in words)” value [1] was “rapid and dose-dependent elevation”. For the same molecule, the “[Ca2+]i response in STC-1 cells (in words)” value ([1]; listed as denatonium) was “promoted rapid [Ca^2+]i responses”, the “increase in [Ca2+]i in STC-1 cells (in words)” value [4] was “dose-dependent increase” and the “[Ca2+]i response in IEC-18 cells (in words)” value [2] was “not in other well studied cell lines such as IEC-18 or 3T3”.
In the case of CN1CCCC1c1cccnc1 (centres unmarked) [nicotine], the “[Ca2+]i response in STC-1 cells (in words)” value [1] is reported as “robust [Ca^2+]i responses”.
